In US11221329B2, “Treatment of neurological and neurodevelopmental diseases and disorders associated with aberrant ion channel expression and activity” (LIEBER INSTITUTE FOR BRAIN DEVELOPMENT, priority 2015, dated 2022):
Entries after “also recorded” stand apart in the source; their conditions may differ.

Experiments:
shCon cells = experiment: Whole-cell current-clamp recordings (AP spiking, mAHP/sAHP) in shCon (control shRNA) mPFC layer 2/3 pyramidal neurons, acute brain slices; assay type: cell-based, rat
Procedure: (§1) Pregnant Wistar rats were obtained from Charles River Laboratories, Inc., maintained by SoBran on a 12-hour light cycle and fed ad libitum. In utero electroporation was performed as previously described (Chen et al., 2014; Maher and Loturco, 2012a). Electroporation was performed on embryonic day 16 (E16) and gestation age was confirmed during surgery. All plasmids were used at a final concentration of 1.5 μg/μl, and the mPFC was targeted for transfection. Pregnant dams were returned to the same housing conditions after recovery from surgery, and after litters were born, transfected rats were used for experiments at days P18-24.
(§2) Acute brain slices were obtained from rats and mice as described previously (Maher and Loturco, 2012b). Briefly, P18-24 male and female animals were deeply anesthetized with isoflurane and transcardially perfused with ice-cold oxygenated (95% O2 and 5% CO2) dissecting buffer containing (in mM): 83 NaCl, 2.5 KCl, 1 NaH2PO4, 26.2 NaHCO3, 22 glucose, 72 sucrose, 0.5 CaCl2, and 3.3 MgCl2. Animals were humanly sacrificed and decapitated and the brains were rapidly removed and immersed in ice-cold oxygenated dissection buffer. Coronal slices (300 μm) were cut using a vibratome (Microm HM650V), incubated in dissection buffer for 30-45 minutes at 34° C., and then stored at room temperature. Slices were visualized using IR differential interference microscopy (DIC) (Olympus BX51WI) and a CCD camera (QICAM, QImaging). Individual layer 2/3 pyramidal cells expressing EGFP in rat brain slices were visualized with epifluorescent illumination and a 43× Olympus LUMPlanFLN (0.8 numerical aperture) objective.
(§3) For all experiments, artificial cerebrospinal fluid (ACSF) was oxygenated (95% O2 and 5% CO2) and contained in (in mM): 125 NaCl, 25 NaHCO3, 1.25 NaH2PO4, 3 KCl, 25 dextrose, 1 MgCl2, and 2 CaCl2, pH 7.3. Patch pipettes were fabricated from borosilicate glass (N51A, King Precision Glass, Inc.) to a resistance of 2-5 MΩ. For current- and voltage-clamp measurements, pipettes were filled with (in mM): 125 potassium gluconate, 10 HEPES, 4 Mg-ATP, 0.3 Na-GTP, 0.1 EGTA, 10 phosophocreatine, 0.05% biocytin, adjusted to pH 7.3 with KOH. For all experiments GABAa receptors were blocked with SR-95531 (Gabazine, 5 μM, Ascent Scientific). For AHP current experiments, synaptic currents were blocked with DL-2-amino-5-phosphopentanoic acid (D,L-AP5, 100 μM, Ascent Scientific), 2,3, dioxo-6-nitro-1,2,3,4, tetrahydrobenzo-quinoxaline-7-sulfonamide (NBQX, 10 μM) and SR-95531 (Gabazine, 5 μM, Ascent Scientific). Ca2+-activated currents were blocked with Tetraethylammonium chloride (TEA, 1 mM, Abcam), apamin (100 nM, Abcam), and carbachol (10 μM, Abcam). Current signals were recorded with either a Multiclamp 700A (Molecular Devices) or with an Axopatch 200B amplifier (Molecular Devices) and were filtered at 2 kHz using a built-in Bessel filter and digitized at 10 kHz. Voltage signals were filtered at 2 kHz and digitized at 10 kHz. Data were acquired using Axograph on a Dell PC. Data acquisition was terminated when series resistance was >15 MΩ. For voltage clamp recordings, pyramidal cells were held at −60 mV. No holding current was used for current-clamp recordings.
(§4) Axograph was used on a Macintosh computer for analysis. To measure spike frequency, EGFP-positive layer 2/3 neurons of the mPFC were injected with a 600 ms depolarizing current pulses ranging from 50 to 500 pA at 50 pA increments with an 10 s inter-trial interval. Each current pulse was measured in triplicate, and the number of resulting APs was averaged. For analysis of fAHP amplitude, the second and third current evoked spikes within the 600 ms pulse were measured. The fAHP potential was measured by subtracting the voltage at the peak of the fAHP from the threshold potential for spike initiation (slope of AP exceeds 50 mV/ms). The mAHP potential was measured at the peak of the AHP that followed the 600 ms current pulse. […]

TCF4+/tr cells = experiment: Whole-cell current-clamp AP spiking in mPFC layer 2/3 neurons of the PTHS mouse model; assay type: cell-based
Procedure: (§5) In the mouse model used for Pitt-Hopkins syndrome (Sweatt, 2013) mice are heterozygous for a deletion of the DNA-binding domain of the Transcription Factor 4 (B6; 129-TCF4tm1Zhu/J; stock number 013598, Jackson Laboratory, Bar Harbor, Me.) (Zhuang et al., 1996). Control mouse experiments were conducted with wild-type littermates. Mice were maintained by SoBran on a 12-hour light cycle and fed ad libitum.
(§6) Acute brain slices were obtained from rats and mice as described previously (Maher and Loturco, 2012b). […]
(§7) For all experiments, artificial cerebrospinal fluid (ACSF) was oxygenated (95% O2 and 5% CO2) and contained in (in mM): 125 NaCl, 25 NaHCO3, 1.25 NaH2PO4, 3 KCl, 25 dextrose, 1 MgCl2, and 2 CaCl2, pH 7.3. […] Current signals were recorded with either a Multiclamp 700A (Molecular Devices) or with an Axopatch 200B amplifier (Molecular Devices) and were filtered at 2 kHz using a built-in Bessel filter and digitized at 10 kHz. […]
(§8) Axograph was used on a Macintosh computer for analysis. […] Each current pulse was measured in triplicate, and the number of resulting APs was averaged. For analysis of fAHP amplitude, the second and third current evoked spikes within the 600 ms pulse were measured. The fAHP potential was measured by subtracting the voltage at the peak of the fAHP from the threshold potential for spike initiation (slope of AP exceeds 50 mV/ms). […]

[1] = system: prefrontal neurons from wildtype littermates; experiment: Whole-cell current-clamp AP output in prefrontal neurons from wildtype littermates; assay type: cell-based, mouse
Procedure: as §5, §6, §7, §8

crEmpty cells = experiment: Whole-cell current-clamp AP spiking in crEmpty (CRISPR control) mPFC neurons; assay type: cell-based, rat
Procedure: as §1, §6
(§9) For all experiments, artificial cerebrospinal fluid (ACSF) was oxygenated (95% O2 and 5% CO2) and contained in (in mM): 125 NaCl, 25 NaHCO3, 1.25 NaH2PO4, 3 KCl, 25 dextrose, 1 MgCl2, and 2 CaCl2, pH 7.3. […] Current signals were recorded with either a Multiclamp 700A (Molecular Devices) or with an Axopatch 200B amplifier (Molecular Devices) and were filtered at 2 kHz using a built-in Bessel filter and digitized at 10 kHz.

shTCF4 cells = experiment: Whole-cell current-clamp recordings (AP spiking, mAHP/sAHP) in shTCF4 (TCF4 knockdown) mPFC layer 2/3 pyramidal neurons, acute brain slices; assay type: cell-based, rat; conditions: shTCF4 cells
Procedure: as §1, §2, §3, §4

crTCF4 cells = experiment: Whole-cell current-clamp AP spiking in crTCF4 (CRISPR-Cas9 TCF4 mutated) mPFC neurons; assay type: cell-based, rat
Procedure: as §1, §6, §9

KCNQ2 = KCNQ2 (Homo sapiens, UniProt O43526); conditions: KCNQ subtype-selective blocker; Soh and Tzingounis, 2010; cited from earlier work
KCNQ1 = KCNQ1 (Homo sapiens, UniProt P51787); conditions: KCNQ subtype-selective blocker; Soh and Tzingounis, 2010; cited from earlier work

With `COc1cc(NC(=O)c2ccc(-c3ccc(Cl)cc3)o2)cc(OC)c1` [A-803467, 5-(4-Chlorophenyl)-N-(3,5-dimethoxyphenyl)-2-furancarboxamide] the “effect on firing frequency” value (shCon cells; A-803467, N=7, p=0.14) was “had no effect on firing frequency”, the “effect on the frequency of APs” value (TCF4+/tr cells; A-803467, significant for current pulses 250-350 pA, N=8) was “effective at rescuing AP output; also recorded: significantly increased firing frequency” and the “effect on action potential output” value ([1]; A-803467, p=0.06, N=5) was “has no effect on action potential output”. The “effect on AP frequency” value (crEmpty cells; A-803467, p=0.15) was “had no effect on firing frequency; also recorded: No effect on AP frequency”, the “effect on the frequency of APs generated in response to increasing current injections” value (shTCF4 cells; A-803467 200 nM bath application, significant for current pulses 350-500 pA, N=11, p<0.05) was “effective at increasing firing frequency; also recorded: significantly increased firing” and the “effect on the frequency of APs” value (crTCF4 cells; A-803467, significant for current pulses 400-500 pA, N=8, p=0.039) was “effective at increasing firing frequency; also recorded: significantly increased firing frequency”.

With `c1ccc(C(NCc2cccnc2)(c2ccccc2)c2ccccc2)cc1` [UCL2077, N-Trityl-3-pyridinemethanamine] the “effect on the frequency of APs (spiking)” value (shCon cells; UCL2077, N=8, p=0.35) was “neither UCL2077 (p=0.35) nor JNJ303 (p=0.11) had an effect on spiking”, the “amplitude of the sAHP after application” value (shCon cells; UCL2077, before −2.60±0.42 mV, N=9, not significant) was −2.69±0.48 mV and the “amplitude of the mAHP after application” value (shCon cells; UCL2077, before −3.78±0.66 mV, N=9, not significant) was −4.01±0.66 mV. The “effect on the frequency of AP spiking” value (TCF4+/tr cells; UCL2077, N=8) was “had no effect; also recorded: has no effect on the frequency of AP spiking”, the “effect on action potential output” value ([1]; UCL2077, p=0.58, N=11) was “has no effect on action potential output” and the “inhibition of KCNQ2” value (KCNQ2) was “strongly inhibits”. For the same compound, the “effect on AP frequency” value (crEmpty cells; UCL2077, p=0.99) was “No effect on AP frequency”, the “effect on the frequency of APs generated in response to current injections” value (shTCF4 cells; UCL2077 10 μM, before vs after, within neuron, significant for current pulses 250-500 pA, N=17, p=0.0002) was “effective at increasing the spiking frequency; also recorded: significantly increased firing frequency” and the “amplitude of the sAHP after application” value (shTCF4 cells; UCL2077, before −2.88±0.42 mV, N=19, p<0.05) was −2.53±0.38 mV. The “amplitude of the mAHP after application” value (shTCF4 cells; UCL2077, before −4.43±0.55 mV, N=19, p=0.003) was −3.736±0.49 mV, the “inhibition of KCNQ1” value (KCNQ1) was “strongly inhibits” and the “effect on the frequency of APs” value (crTCF4 cells; UCL2077, significant for current pulses 400-500 pA, N=7, p=0.045) was “significantly increased firing frequency”.
